From patent publication US9011927B2, “Pentablock polymers” (The Curators of the University of Missouri, priority 2010, dated 2015)

Columns and labels:
Format in all cases: cell-based
PCEC = test: MTS assay on Pentablock Polymer B, PCEC; conditions: Triton X positive control
Method: Pentablock Polymer B: Cytotoxicity for Pentablock Polymer B was performed at different concentration ranging from 0.5-10 mg/ml. The plates were seeded with cell density of 10,000 cells/100 μL. After 24 hours of incubation fresh medium containing hydrogel of different concentration ranging from 0.5-10 mg/ml were added and further incubated for 24 hours. MTS assay is based on the reduction of the tetrazolium salt (yellow) to fromazone (purple) by mitochondrial enzymes of metabolic active cells. The amount of the fromazone is directly proportional to viable cells. In MTS assay Trioton X treated cells were served as […]. […] After incubation, the absorbance of each well was measured at 450 nm by ELISA plate reader. The absorbance is directly proportional to viability of cells.

[1] = system: SIRC (rabbit corneal cell line); test: MTS assay on Pentablock Polymer A, SIRC; conditions: Triton X positive control
Method: (§1) The cytotoxicity and biocompatibility of the Pentablock Polymer A and Pentablock Polymer B were investigated in several cell lines. ARPE-19 (human retinal pigment epithelial cell line), SIRC (rabbit corneal cell line), and RAW 264.7 (mouse macrophage cell line) were obtained from American Type Culture Collection (“ATCC”). ARPE-19 cells were cultured in Dubelcco's modified Eagle's medium (“DMEM/F12”) supplemented with 10% fetal bovine serum (“FBS”), 100 U/mL penicillin and 100 μg/mL of streptomycin. SIRC cells were cultured in minimum essential medium (“MEM”) and supplemented with 10% FBS, 100 U/mL of penicillin and 100 μg/mL of streptomycin. RAW 264.7 (Mouse macrophage cells) cells were cultured in DMEM/F12supplemented with 10% FBS, 10% of nonessential amino acids, 100 U/mL penicillin and 100 μg/mL of streptomycin. The pH of the medium was adjusted to 7.4 and cells were incubated in humidified atmosphere at 37° C. temperature with 5% CO2 environment. The cell cultures were exposed directly to different concentrations of Pentablock Polymer A and Pentablock Polymer B. […]
(§2) MTS assay is based on the reduction of the tetrazolium salt (yellow) to fromazone (purple) by mitochondrial enzymes of metabolic active cells. […] After incubation, the absorbance of each well was measured at 450 nm by ELISA plate reader. The absorbance is directly proportional to viability of cells.

[2] = system: RAW 264.7 (mouse macrophage cell line); test: MTS assay on Pentablock Polymer A, RAW 264.7; conditions: RAW 264.7, Triton X positive control
Method: as §1, §2

[3] = system: ARPE-19 (human retinal pigment epithelial cell line); test: MTS assay on Pentablock Polymer B, ARPE 19; conditions: ARPE 19, Triton X positive control
Method: The cytotoxicity and biocompatibility of the Pentablock Polymer A and Pentablock Polymer B were investigated in several cell lines. ARPE-19 (human retinal pigment epithelial cell line), SIRC (rabbit corneal cell line), and RAW 264.7 (mouse macrophage cell line) were obtained from American Type Culture Collection (“ATCC”). ARPE-19 cells were cultured in Dubelcco's modified Eagle's medium (“DMEM/F12”) supplemented with 10% fetal bovine serum (“FBS”), 100 U/mL penicillin and 100 μg/mL of streptomycin. SIRC cells were cultured in minimum essential medium (“MEM”) and supplemented with 10% FBS, 100 U/mL of penicillin and 100 μg/mL of streptomycin. RAW 264.7 (Mouse macrophage cells) cells were cultured in DMEM/[…] with 10% FBS, 10% of nonessential amino acids, 100 U/mL penicillin and 100 μg/mL of streptomycin. […] The cell cultures were exposed directly to different concentrations of Pentablock Polymer A and Pentablock Polymer B. Pentablock Polymer B: Cytotoxicity for Pentablock Polymer B was performed at different concentration ranging from 0.5-10 mg/ml. The plates were seeded with cell density of 10,000 cells/100 μL. […] After incubation, the absorbance of each well was measured at 450 nm by ELISA plate reader. The absorbance is directly proportional to viability of cells.

Triton X
MTS assay (absorbance proportional to viability of cells) (PCEC): 0.000 | MTS assay (absorbance proportional to viability of cells) [1]: 0 | MTS assay (absorbance proportional to viability of cells) [2]: 0 | MTS assay (absorbance proportional to viability of cells) [3]: 0.000
